Results taken from patent publication US9994535B2, “Desferrithiocin polyether analogues” (University of Florida Research Foundation, Inc., priority 2005, dated 2018).

Key:
[1] = Tissue and plasma concentrations upon subcutaneous administration to rats; assay type: in vivo; settings: rat, sc 300 μmol/kg
Procedure: Tissue Distribution of a Polyether-Substituted (S)-4′-Hydroxydesazadesferrithiocin Analogue [(S)-4′-(HO)-DADFT-PE] Upon Subcutaneous Administration to Rats
A measurement was made assessing (S)-4′-(HO)-DADFT-PE and (S)-4′-(HO)-DADFT tissue and plasma concentrations upon subcutaneous administration at times from 2-8 h post dosing. The rats were given this compound subcutaneously at 300 μmol/kg. The tissue and plasma level were obtained as described in Bergeron et al. J Med Chem. 48:821-831 (2005), the entire contents of which are incorporated herein by reference.

[2] = Iron clearing efficiency in non-iron overloaded, bile duct cannulated rat model; assay type: in vivo; settings: for Efficiency (%) (iron clearing efficiency): 300 μmol/kg, 24 hour iron excretion, 2:1 ligand-iron complex; for Iron clearing efficiency compared with parent drug (S)-4-(HO)-DADFT: same micromole per kilogram dose
Procedure: Iron Clearing Efficiency of Iron Chelators in a Non-Iron Overloaded, Bile Duct Cannulated Rat Model
Studies were performed in the non-iron overloaded, bile duct cannulated rodent model with the compounds shown below.
Briefly, male Sprague-Dawley rats averaging 450 g were housed in Nalgene plastic metabolic cages during the experimental period and given free access to water. The animals were anesthetized using sodium pentobarbital (55 mg/kg) administered intraperitoneally. The bile duct was cannulated using 22-gauge polyethylene tubing. The cannula was inserted into the duct about 1 cm from the duodenum and tied snugly in place. After threading through the shoulder, the cannula was passed from the rat to the swivel inside a metal torque-transmitting tether, which was attached to a rodent jacket around the animal's chest. The cannula was directed from the rat to a Gilson microfraction collector (Middleton, Wis.) by a fluid swivel mounted above the metabolic cage. Three hour bile samples were continuously collected for a minimum of 24 hours up to 48 hours. However, the efficiency calculations are based on the 24 hour iron excretion. The efficiency of each chelator was calculated on the basis of a 2:1 ligand-iron complex. The efficiencies in the rodent model were calculated by subtracting the iron excretion of control animals from the iron excretion of treated animals. This number was then divided by the theoretical output; the result is expressed as a percentage (Bergeron, R. J., et al., J. Med Chem. 42:95-108 (1999) the entire contents of which are incorporated herein by reference). The urine sample was taken at 24 hours and handled as previously described in Bergeron, R. J., et al., J. Med. Chem. 34:2072-2078 (1991), the entire contents of which are incorporated herein by reference.

## COc1ccc(C2=N[C@@](C)(C(=O)O)CS2)c(O)c1 [(S)-4′-(CH3O)-DADFT]
[1]; 2 h
  Brain concentration of administered compound: 13.2 ± 4.8 nmol/g wet wt
  Brain concentration of metabolite of administered compound: <2.4 nmol/g wet wt
  Heart concentration of administered compound: 66.2 ± 2.2 nmol/g wet wt
  Heart concentration of metabolite of administered compound: 6.4 ± 0.6 nmol/g wet wt
  Kidney concentration of administered compound: 97.5 ± 24.5 nmol/g wet wt
  Kidney concentration of metabolite of administered compound: 49.9 ± 21.3 nmol/g wet wt
  Liver concentration of administered compound: 111.0 ± 14.0 nmol/g wet wt
  Liver concentration of metabolite of administered compound: 43.5 ± 4.5 nmol/g wet wt
  Pancreas concentration of administered compound: 37.1 ± 3.8 nmol/g wet wt
  Pancreas concentration of metabolite of administered compound: 1.3 ± 2.2 nmol/g wet wt
[1]; 4 h
  Brain concentration of administered compound: 7.4 ± 0.7 nmol/g wet wt
  Brain concentration of metabolite of administered compound: <2.4 nmol/g wet wt
  Heart concentration of administered compound: 32.6 ± 3.6 nmol/g wet wt
  Heart concentration of metabolite of administered compound: <4.8 nmol/g wet wt
  Kidney concentration of administered compound: 57.0 ± 15.5 nmol/g wet wt
  Kidney concentration of metabolite of administered compound: 23.2 ± 1.7 nmol/g wet wt
  Liver concentration of administered compound: 73.8 ± 10.8 nmol/g wet wt
  Liver concentration of metabolite of administered compound: 24.6 ± 1.1 nmol/g wet wt
  Pancreas concentration of administered compound: 19.4 ± 1.4 nmol/g wet wt
  Pancreas concentration of metabolite of administered compound: 0.0 ± 0.0 nmol/g wet wt
[1]; 6 h
  Brain concentration of administered compound: 4.8 ± 3.1 nmol/g wet wt
  Brain concentration of metabolite of administered compound: <2.4 nmol/g wet wt
  Heart concentration of administered compound: 28.2 ± 0.7 nmol/g wet wt
  Heart concentration of metabolite of administered compound: <4.8 nmol/g wet wt
  Kidney concentration of administered compound: 67.2 ± 9.9 nmol/g wet wt
  Kidney concentration of metabolite of administered compound: 21.7 ± 6.2 nmol/g wet wt
  Liver concentration of administered compound: 80.9 ± 10.7 nmol/g wet wt
  Liver concentration of metabolite of administered compound: 26.9 ± 5.1 nmol/g wet wt
  Pancreas concentration of administered compound: 16.5 ± 4.5 nmol/g wet wt
  Pancreas concentration of metabolite of administered compound: 0.0 ± 0.0 nmol/g wet wt
[1]; 8 h
  Brain concentration of administered compound: <1.6 ± 0.0 nmol/g wet wt
  Brain concentration of metabolite of administered compound: <2.4 nmol/g wet wt
  Heart concentration of administered compound: 26.3 ± 9.7 nmol/g wet wt
  Heart concentration of metabolite of administered compound: <4.8 nmol/g wet wt
  Kidney concentration of administered compound: 67.4 ± 19.9 nmol/g wet wt
  Kidney concentration of metabolite of administered compound: 25.3 ± 2.5 nmol/g wet wt
  Liver concentration of administered compound: 81.4 ± 15.9 nmol/g wet wt
  Liver concentration of metabolite of administered compound: 25.0 ± 3.6 nmol/g wet wt
  Pancreas concentration of administered compound: 9.7 ± 0.7 nmol/g wet wt
  Pancreas concentration of metabolite of administered compound: 0.0 ± 0.0 nmol/g wet wt
[1]; plasma, 2 h
  Plasma concentration of administered compound: 478.8 ± 36.8 µM
  Plasma concentration of metabolite of administered compound: 8.4 ± 1.8 µM
[1]; plasma, 4 h
  Plasma concentration of administered compound: 236.3 ± 42.0 µM
  Plasma concentration of metabolite of administered compound: 4.2 ± 1.0 µM
[1]; plasma, 6 h
  Plasma concentration of administered compound: 142.5 ± 29.5 µM
  Plasma concentration of metabolite of administered compound: 1.8 ± 0.6 µM
[1]; plasma, 8 h
  Plasma concentration of administered compound: 79.6 ± 13.3 µM
  Plasma concentration of metabolite of administered compound: 0.0 ± 0.0 µM
[2]; p.o.
  Efficiency (%) (iron clearing efficiency): 6.6 ± 2.8%

## C[C@]1(C(=O)O)CSC(c2ccc(O)cc2O)=N1 [(S)-4′-(HO)-DADFT, (S)-2-(2,4-dihydroxyphenyl)-4,5-dihydro-4-methyl-4-thiazolecarboxylic acid]
[1]; 2 h
  Brain concentration of administered compound: 0 ± 0 nmol/g wet wt
  Heart concentration of administered compound: 4.6 ± 3^ nmol/g wet wt
  Kidney concentration of administered compound: 97.1 ± .50 nmol/g wet wt
  Liver concentration of administered compound: 48.3 ± 20.3 nmol/g wet wt
  Pancreas concentration of administered compound: 5.8 ± 1.3 nmol/g wet wt
[1]; 4 h
  Brain concentration of administered compound: 0 ± 0 nmol/g wet wt
  Heart concentration of administered compound: 0 ± 0 nmol/g wet wt
  Kidney concentration of administered compound: 26.6 ± 7.1 nmol/g wet wt
  Liver concentration of administered compound: 25.0 ± 3.9 nmol/g wet wt
  Pancreas concentration of administered compound: 0 ± 0 nmol/g wet wt
[1]; 6 h
  Brain concentration of administered compound: 0 ± 0 nmol/g wet wt
  Heart concentration of administered compound: 0 ± 0 nmol/g wet wt
  Kidney concentration of administered compound: 13.0 ± 8.0 nmol/g wet wt
  Liver concentration of administered compound: 19.3 ± 2.0 nmol/g wet wt
  Pancreas concentration of administered compound: 0 ± 0 nmol/g wet wt
[1]; 8 h
  Brain concentration of administered compound: 0 ± 0 nmol/g wet wt
  Heart concentration of administered compound: 0 ± 0 nmol/g wet wt
  Kidney concentration of administered compound: 8.8 ± 2.9 nmol/g wet wt
  Liver concentration of administered compound: 12.3 ± 0.8 nmol/g wet wt
  Pancreas concentration of administered compound: 0 ± 0 nmol/g wet wt
[1]; plasma, 2 h, read-out: Plasma concentration of administered compound
  concentration at 2 h: 13.1 ± 2.7 µM
[1]; plasma, 4 h
  Plasma concentration of administered compound: 2 ± 0.4 µM
[1]; plasma, 6 h, read-out: Plasma concentration of administered compound
  concentration at 6 h: 0 nM
[1]; plasma, 8 h, read-out: Plasma concentration of administered compound
  concentration at 8 h: 0 nM
[2]; p.o.
  Efficiency (%) (iron clearing efficiency): 1.0 ± 0.4%
[2]; s.c.
  Efficiency (%) (iron clearing efficiency): 1.1 ± 0.6%

## CCOC(=O)[C@@]1(C)CSC(c2ccc(OCCOCCOCCOC)cc2O)=N1 [(S)-4′-(HO)-DADFT-PE EE]
[2]; s.c.
  Efficiency (%) (iron clearing efficiency): 11.4 ± 0.8%
[2]
  Iron clearing efficiency compared with parent drug (S)-4-(HO)-DADFT: work better than the parent drug

## COCCOCCOCCOc1ccc(C2=N[C@@](C)(C(=O)OC(C)C)CS2)c(O)c1 [(S)-4′-(HO)-DADFT-PE iPrE]
[2]; p.o.
  Efficiency (%) (iron clearing efficiency): 9.2 ± 4.4%
[2]; s.c.
  Efficiency (%) (iron clearing efficiency): 25.9 ± 9.2%
[2]; both administered subcutaneously
  Iron clearing efficiency of isopropylester vs ethyl ester: significantly more efficient
[2]
  Iron clearing efficiency compared with parent drug (S)-4-(HO)-DADFT: work better than the parent drug

## CC(C)OC(=O)[C@@]1(C)CSC(c2ccc(O)cc2O)=N1 [(S)-4′-(HO)-DADFT-iPrE]
[2]; s.c.
  Efficiency (%) (iron clearing efficiency): 1.98 ± 0.91%
